The values below come from ChEMBL document CHEMBL1201862, “PubChem BioAssay data set” (2004).

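Growth conditions: 96-well plates. Treatment: test compound, 48 hours, 5 concentrations. Analysis: linear interpolation between bracketing concentrations; unreached endpoints set to highest concentration. GI50 is the concentration that inhibits growth by half.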 Calls of active or inactive are those of the source. Cut-off read from the data, not from the text of the source: active = GI50 up to about 1.1 µM and inactive = higher.

Holding throughout (assay): NCI-60 cell line screen, 48 h
The subject of assay [1] is NCI-H522.
The subject of assay [2] is SK-OV-3.
The test system of assay [3] is SNB-19.
Assay [4] has as its system SNB-75.
Assay [5] deals with HOP-62.
Assay [6] deals with MDA-MB-231.
For assay [7], the system named is PC-3.
Assay [8] deals with UO-31.
The subject of assay [9] is 786-0.
Assay [10] deals with SK-MEL-28.
The test system of assay [11] is IGROV-1.
Assay [12] relates to TK-10.
Assay [13] deals with KM12.
In assay [14] the test system is M14.
In assay [15] the test system is SN12C.
The test system of assay [16] is K562.
The test system of assay [17] is Hs-578T.
For assay [18], the system named is T47D.
Assay [19] has as its system LOX IMVI.
Assay [20] concerns MOLT-4.

Regarding `OCCN(CO)CO`, the GI50 in assay [1], in [2], in assay [3], in [4], in assay [5] and in assay [6] was > 100 µM (inactive) throughout. For the same molecule, the GI50 in assay [7] was > 100 µM (inactive); in assay [8] it was > 100 µM (inactive); in assay [9] it was 91.4 µM (inactive); in [10] it was > 100 µM (inactive); in assay [11], > 100 µM (inactive); in assay [12] it was > 100 µM (inactive). Also, the GI50 in assay [13], in [14], in [15], in assay [16], in assay [17] and in assay [18] was > 100 µM (inactive) each time.

Regarding `O=[N+]([O-])c1ccc2nc3c(nc2c1)-c1c2ccccc2cc2cccc-3c12`, the GI50 in assay [1] was 3.3 µM (inactive); in assay [2], 17.5 µM (inactive); in assay [3] it was 11.7 µM (inactive); in assay [19], 4.8 µM (inactive); in assay [5] it was 18.6 µM (inactive); in assay [6], 18.7 µM (inactive). The GI50 is 9.55 µM (inactive) in assay [7]; 12.1 µM (inactive) in assay [8]; 7.62 µM (inactive) in assay [9]; 51.4 µM (inactive) in assay [10]; 4.43 µM (inactive) in assay [11]; 25.1 µM (inactive) in [12]. Moreover, the GI50 is 2.17 µM (inactive) in assay [20]; 3.61 µM (inactive) in [13]; 31.3 µM (inactive) in assay [14]; 10.7 µM (inactive) in assay [15]; 6.1 µM (inactive) in assay [16]; 5.37 µM (inactive) in assay [17]. Further, the GI50 in assay [18] is 0.142 µM (active).

As to `Cc1ccc2c(=O)c3c(O)c4c(cc3n(C)c2c1)OC(C)(C)C=C4`, the GI50 in assay [1], in assay [2], in assay [3], in assay [19], in assay [4] and in [5] was > 10 µM (inactive) throughout. Also, the GI50 in [6], in [7], in assay [9], in assay [10], in assay [11] and in [12] was > 10 µM (inactive) throughout. In addition, the GI50 in assay [20], in assay [13], in [14], in assay [15], in assay [16] and in [17] was > 10 µM (inactive) throughout. Moreover, the GI50 in [18] is > 10 µM (inactive).

Regarding `CC(C)[C@H](NC(=O)OCc1ccccc1)C(=O)N[C@H](/C=C/C(=O)OC(C)(C)C)CO`, the GI50 in assay [1] is > 100 µM (inactive); in assay [2] it was > 100 µM (inactive); in assay [3] it was > 100 µM (inactive); in assay [19], > 100 µM (inactive); in assay [4], 0.12 µM (active); in [5], > 100 µM (inactive). The GI50 in assay [6] was > 100 µM (inactive); in assay [7], 68.1 µM (inactive); in assay [9], 65.6 µM (inactive); in assay [10], > 100 µM (inactive); in assay [11], > 100 µM (inactive); in assay [12], > 100 µM (inactive). Further, the GI50 was > 100 µM (inactive) in assay [20]; > 100 µM (inactive) in assay [13]; > 100 µM (inactive) in assay [14]; > 100 µM (inactive) in assay [15]; > 100 µM (inactive) in assay [17]; 36.7 µM (inactive) in assay [18].

In the case of `COc1cc(N(CCC#N)CCC#N)ccc1C(/N=N/c1cccc(C)c1)=N\NC(=O)c1ccc(C)cc1`, the GI50 in [1] was 80.5 µM (inactive); in assay [2], > 100 µM (inactive); in [3], > 100 µM (inactive); in [19], > 100 µM (inactive); in assay [5] it was > 100 µM (inactive); in assay [6], > 100 µM (inactive). Further, the GI50 is > 100 µM (inactive) in assay [7]; > 100 µM (inactive) in assay [8]; > 100 µM (inactive) in assay [9]; > 100 µM (inactive) in [10]; > 100 µM (inactive) in assay [11]; 57.7 µM (inactive) in [12]. The GI50 in assay [20] was 7.91 µM (inactive); in [13], > 100 µM (inactive); in [14], > 100 µM (inactive); in assay [15], > 100 µM (inactive); in assay [16], > 100 µM (inactive); in [17] it was > 100 µM (inactive). Also, in assay [18], the GI50 is 66.2 µM (inactive).

Consider `CC(=O)c1sc2c(c1OC(=O)c1cccs1)c(=O)n(-c1ccccc1)c(=S)n2-c1ccccc1`, for which the GI50 is 0.359 µM (active) in assay [1]; 21.9 µM (inactive) in assay [2]; 12.5 µM (inactive) in assay [3]; 4.84 µM (inactive) in assay [19]; 29.4 µM (inactive) in [4]; 17 µM (inactive) in assay [5]. The GI50 in [6] is 14.4 µM (inactive); in [7], 3.63 µM (inactive); in assay [9], 4.75 µM (inactive); in [10], 2.99 µM (inactive); in [11], 18.6 µM (inactive); in assay [12], 23.7 µM (inactive). For the same molecule, the GI50 in [20] is 20.3 µM (inactive); in assay [13], 23 µM (inactive); in assay [14], 3.24 µM (inactive); in assay [15] it was 3.94 µM (inactive); in assay [16] it was 35.4 µM (inactive); in assay [17] it was 3.66 µM (inactive). For the same molecule, the GI50 in assay [18] was 15.9 µM (inactive).

For `O=[N+]([O-])C(=C1Nc2ccccc2N1)/C(Cl)=C(/Cl)N1CCOCC1`, the GI50 in assay [2] was > 100 µM (inactive); in assay [3], > 100 µM (inactive); in assay [4], 97.7 µM (inactive); in assay [5], 97.9 µM (inactive); in assay [6], 36.1 µM (inactive); in [7], 87.7 µM (inactive). Also, the GI50 in assay [8] is > 100 µM (inactive); in [9] it was 98.9 µM (inactive); in assay [10] it was > 100 µM (inactive); in assay [20], 17.4 µM (inactive); in [13], > 100 µM (inactive); in [14] it was 88.5 µM (inactive). Besides, the GI50 is > 100 µM (inactive) in [15], 43.3 µM (inactive) in assay [16], 34.6 µM (inactive) in assay [17] and 15.1 µM (inactive) in assay [18].

Turning to `OCC(CN1CCCCC1)(CN1CCCCC1)CN1CCCCC1`, the GI50 in [1], in [2], in assay [3], in [19], in [5] and in assay [6] was > 100 µM (inactive) throughout. Moreover, the GI50 in [7], in assay [8], in [9], in [10], in assay [11] and in assay [12] was > 100 µM (inactive) each time. The GI50 in assay [20], in assay [13], in assay [14], in assay [15], in [16] and in assay [17] was > 100 µM (inactive) throughout. The GI50 in assay [18] is > 100 µM (inactive).

On to `CC(C)c1ccc(/C=C2\N=C(c3ccc([N+](=O)[O-])cc3)OC2=O)cc1`, for which the GI50 in assay [1], in [2], in assay [3], in assay [19], in assay [4] and in assay [5] was > 100 µM (inactive) each time. Also, the GI50 in assay [6], in assay [7], in assay [9], in [10], in assay [11] and in [12] was > 100 µM (inactive) in each case. The GI50 in assay [20], in [13], in assay [14], in assay [15], in assay [16] and in [17] was > 100 µM (inactive) in each case. For the same molecule, the GI50 in assay [18] was > 100 µM (inactive).

Turning to `O=C(O)C1(Cc2ccc3c(c2)CCC3)Cc2ccccc2C1=O` (centres undefined), the GI50 in [2] is 50.6 µM (inactive); in assay [3], 79.3 µM (inactive); in assay [19], 78 µM (inactive); in assay [4] it was 38.8 µM (inactive); in assay [5], 57.8 µM (inactive); in assay [6], > 100 µM (inactive). Moreover, the GI50 in assay [7] is 46.7 µM (inactive); in assay [8], 56 µM (inactive); in [9], > 100 µM (inactive); in assay [10] it was > 100 µM (inactive); in [11] it was 57.8 µM (inactive); in [12] it was > 100 µM (inactive). For the same molecule, the GI50 is 91.4 µM (inactive) in [20]; 39.7 µM (inactive) in assay [13]; > 100 µM (inactive) in [14]; 63.7 µM (inactive) in [15]; 50.5 µM (inactive) in [16]; 47.4 µM (inactive) in assay [17]. Besides, the GI50 in assay [18] is 40.9 µM (inactive).

With `CC(=O)/C=N/CC(=O)O`, the GI50 in assay [1], in assay [2], in assay [3], in assay [19], in assay [4] and in assay [5] was > 100 µM (inactive) in each case. The GI50 in [6], in assay [7], in assay [9], in assay [10], in assay [11] and in [12] was > 100 µM (inactive) each time. Further, the GI50 in assay [20], in [13], in [14], in [15], in [16] and in [17] was > 100 µM (inactive) throughout. Moreover, the GI50 in [18] is > 100 µM (inactive).
